Experimental data: PubChem BioAssay AID270 (DTP/NCI, 2004)
Values joined by “and” are separate entries in the source; they are usually repeats but may differ in a detail not shown here. Equal entries are not always repeated. Results filed as inconclusive are left out.

Tested on: BDF1 mice, s.c. Lewis lung carcinoma, T/C %
Test: NCI In Vivo Anticancer Drug Screen. Data for tumor model Lewis Lung Carcinoma (subcutaneous) in B6D2F1 (BDF1) mice
Procedure, shortened: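 Readout: survival or tumor size, expressed as treated (T) over vehicle control (C). Transplantable tumor implanted in mice; compound given to the treated group.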

With `N[C@@H](Cc1ccc(N(CCCl)CCCl)cc1)C(=O)O` the T/C (endpoint: mean tumor weight, dose: 0.5 mg/kg/injection, schedule: Q01DX011 (ip), vehicle: saline, higher = larger tumour) was 76 % of control, the T/C (endpoint: mean tumor weight, dose: 0.8 mg/kg/injection, schedule: Q01DX011 (ip), vehicle: carboxymethylcellulose (CMC), higher = larger tumour) was 71 % of control and the T/C (endpoint: mean tumor weight, dose: 1.0 mg/kg/injection, schedule: Q01DX011 (ip), vehicle: saline, higher = larger tumour) was 46 % of control. For the same compound, the T/C (endpoint: mean tumor weight, dose: 1.6 mg/kg/injection, schedule: Q01DX011 (ip), vehicle: carboxymethylcellulose (CMC), higher = larger tumour) was 70 % of control, the T/C (endpoint: mean tumor weight, dose: 2.0 mg/kg/injection, schedule: Q01DX011 (ip), vehicle: saline, higher = larger tumour) was 46 % of control and the T/C (endpoint: mean tumor weight, dose: 2.4 mg/kg/injection, schedule: Q01DX011 (ip), vehicle: carboxymethylcellulose (CMC), higher = larger tumour) was 68 % of control and 69 % of control. The T/C (endpoint: mean tumor weight, dose: 3.6 mg/kg/injection, schedule: Q01DX011 (ip), vehicle: carboxymethylcellulose (CMC), higher = larger tumour) was 45 % of control, the T/C (endpoint: mean tumor weight, dose: 4.0 mg/kg/injection, schedule: Q01DX011 (ip), vehicle: saline, higher = larger tumour) was 21 % of control and the T/C (endpoint: mean tumor weight, dose: 5.4 mg/kg/injection, schedule: Q01DX011 (ip), vehicle: carboxymethylcellulose (CMC), higher = larger tumour) was 20 % of control. For the same compound, the T/C (endpoint: median survival time, dose: 0.04 mg/kg/injection, schedule: Q01DX009 (ip), vehicle: saline, higher = longer survival) was 115 % of control, the T/C (endpoint: median survival time, dose: 0.08 mg/kg/injection, schedule: Q01DX009 (ip), vehicle: saline, higher = longer survival) was 103 % of control and the T/C (endpoint: median survival time, dose: 0.31 mg/kg/injection, schedule: Q01DX009 (ip), vehicle: saline, higher = longer survival) was 107 % of control. For the same compound, the T/C (endpoint: median survival time, dose: 0.5 mg/kg/injection, schedule: Q01DX009 (ip), vehicle: saline with Tween-80, higher = longer survival) was 101 % of control, the T/C (endpoint: median survival time, dose: 0.5 mg/kg/injection, schedule: Q01DX009 (ip), vehicle: saline, higher = longer survival) was 104 % of control and 122 % of control and the T/C (endpoint: median survival time, dose: 0.75 mg/kg/injection, schedule: Q01DX009 (ip), vehicle: saline, higher = longer survival) was 102 % of control. The T/C (endpoint: median survival time, dose: 1.0 mg/kg/injection, schedule: Q01DX009 (ip), vehicle: Klucel (hydroxypropylcellulose) (HPC), higher = longer survival) was 107 % of control, the T/C (endpoint: median survival time, dose: 1.0 mg/kg/injection, schedule: Q01DX009 (ip), vehicle: saline with Tween-80, higher = longer survival) was 108 % of control and the T/C (endpoint: median survival time, dose: 1.0 mg/kg/injection, schedule: Q01DX009 (ip), vehicle: saline, higher = longer survival) was 107 % of control. The T/C (endpoint: median survival time, dose: 1.5 mg/kg/injection, schedule: Q01DX009 (ip), vehicle: saline, higher = longer survival) was 93 % of control, the T/C (endpoint: median survival time, dose: 2.0 mg/kg/injection, schedule: Q01DX001 (ip), vehicle: saline, higher = longer survival) was 106 % of control and the T/C (endpoint: median survival time, dose: 2.0 mg/kg/injection, schedule: Q01DX009 (ip), vehicle: Klucel (hydroxypropylcellulose) (HPC), higher = longer survival) was 89 % of control. For the same compound, the T/C (endpoint: median survival time, dose: 2.0 mg/kg/injection, schedule: Q01DX009 (ip), vehicle: saline with Tween-80, higher = longer survival) was 97 % of control, the T/C (endpoint: median survival time, dose: 2.5 mg/kg/injection, schedule: Q01DX001 (ip), vehicle: saline, higher = longer survival) was 100 % of control and the T/C (endpoint: median survival time, dose: 2.5 mg/kg/injection, schedule: Q01DX001 (ip), vehicle: water, higher = longer survival) was 90 % of control. The T/C (endpoint: median survival time, dose: 3.0 mg/kg/injection, schedule: Q01DX009 (ip), vehicle: saline, higher = longer survival) was 116 % of control, the T/C (endpoint: median survival time, dose: 4.0 mg/kg/injection, schedule: Q01DX001 (ip), vehicle: saline, higher = longer survival) was 100 % of control and the T/C (endpoint: median survival time, dose: 4.0 mg/kg/injection, schedule: Q01DX009 (ip), vehicle: Klucel (hydroxypropylcellulose) (HPC), higher = longer survival) was 104 % of control. The T/C (endpoint: median survival time, dose: 4.0 mg/kg/injection, schedule: Q01DX009 (ip), vehicle: saline, higher = longer survival) was 100 % of control and 123 % of control, the T/C (endpoint: median survival time, dose: 4.0 mg/kg/injection, schedule: Q04DX003 (ip), vehicle: saline, higher = longer survival) was 119 % of control and the T/C (endpoint: median survival time, dose: 5.0 mg/kg/injection, schedule: Q01DX001 (ip), vehicle: water, higher = longer survival) was 109 % of control. For the same compound, the T/C (endpoint: median survival time, dose: 8.0 mg/kg/injection, schedule: Q01DX001 (ip), vehicle: saline, higher = longer survival) was 112 % of control, the T/C (endpoint: median survival time, dose: 8.0 mg/kg/injection, schedule: Q01DX009 (ip), vehicle: saline, higher = longer survival) was 86 % of control and the T/C (endpoint: median survival time, dose: 8.0 mg/kg/injection, schedule: Q04DX003 (ip), vehicle: saline, higher = longer survival) was 107 % of control. For the same compound, the T/C (endpoint: median survival time, dose: 10.0 mg/kg/injection, schedule: Q01DX001 (ip), vehicle: saline, higher = longer survival) was 100 % of control, the T/C (endpoint: median survival time, dose: 10.0 mg/kg/injection, schedule: Q01DX001 (ip), vehicle: water, higher = longer survival) was 104 % of control and the T/C (endpoint: median tumor weight (est.), dose: 6.3 mg/kg/injection, schedule: Q01DX001 (ip), vehicle: carboxymethylcellulose (CMC), higher = larger tumour) was 41 % of control. The T/C (endpoint: median tumor weight (est.), dose: 13.0 mg/kg/injection, schedule: Q01DX001 (ip), vehicle: carboxymethylcellulose (CMC), higher = larger tumour) was 39 % of control.
